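Five compound concentrations were applied to cells in 96-well plates for 48 hours; endpoints were derived by simple linear interpolation of the resulting dose-response curve. GI50 is the concentration that inhibits growth by half. TGI denotes the concentration required for complete inhibition of growth.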
Experiments:
Assay in all cases: NCI tumour cell line growth inhibition, 48 h
BT-549 breast = test system: BT-549 breast
CCRF-CEM leukemia = test system: CCRF-CEM leukemia
COLO 205 colon = test system: COLO 205 colon
DU-145 prostate = test system: DU-145 prostate
HCC-2998 colon = test system: HCC-2998 colon
HCT-15 colon = test system: HCT-15 colon
HL-60(TB) leukemia = test system: HL-60(TB) leukemia
HOP-62 NSCLC = test system: HOP-62 NSCLC
HT29 colon = test system: HT29 colon
KM12 colon = test system: KM12 colon
MCF7 breast = test system: MCF7 breast
MDA-MB-435 = test system: MDA-MB-435
MOLT-4 leukemia = test system: MOLT-4 leukemia
PC-3 prostate = test system: PC-3 prostate
SK-MEL-2 melanoma = test system: SK-MEL-2 melanoma
SNB-19 CNS = test system: SNB-19 CNS
SW-620 colon = test system: SW-620 colon
UACC-257 melanoma = test system: UACC-257 melanoma

## O=C(CSc1nnc(-c2ccc(Cl)cc2)n1-c1ccccc1)Nc1ccc(Br)cc1
BT-549 breast
  GI50: > 50 µM
  TGI: > 50 µM
CCRF-CEM leukemia
  GI50: > 50 µM
  TGI: > 50 µM
COLO 205 colon
  GI50: > 50 µM
  TGI: > 50 µM
DU-145 prostate
  GI50: > 50 µM
  TGI: > 50 µM
HCC-2998 colon
  GI50: > 50 µM
  TGI: > 50 µM
HCT-15 colon
  GI50: > 50 µM
  TGI: > 50 µM
HL-60(TB) leukemia
  GI50: > 50 µM
  TGI: > 50 µM
HOP-62 NSCLC
  GI50: 1.87 µM
  TGI: > 50 µM
HT29 colon
  GI50: > 50 µM
  TGI: > 50 µM
KM12 colon
  GI50: > 50 µM
  TGI: > 50 µM
MCF7 breast
  GI50: > 50 µM
  TGI: > 50 µM
MDA-MB-435
  GI50: > 50 µM
  TGI: > 50 µM
MOLT-4 leukemia
  GI50: > 50 µM
  TGI: > 50 µM
PC-3 prostate
  GI50: > 50 µM
  TGI: > 50 µM
SK-MEL-2 melanoma
  GI50: > 50 µM
  TGI: > 50 µM
SNB-19 CNS
  GI50: 1.89 µM
  TGI: > 50 µM
SW-620 colon
  GI50: > 50 µM
  TGI: > 50 µM
UACC-257 melanoma
  GI50: > 50 µM
  TGI: > 50 µM
